Laboratory results published in PMC11117691, “Flipping the GPCR Switch: Structure-Based Development of Selective Cannabinoid Receptor 2 Inverse Agonists” (ACS Central Science, 2024).

What was measured:
hCB2R [1] = target: T1, hCB2R (Homo sapiens, UniProt P34972); assay: cAMP HTRF assay in hCB2R-CHO cells; type: cell-based; design: expressed in transfected cells; settings: for EC50: hCB2R-CHO cells, forskolin stimulated, mean N = 3
Description: One of the canonical signaling pathways of CB2R involves association with Gαi/o proteins, which elicit reversible inhibition of adenylyl cyclase resulting in a decrease of cellular cAMP levels and suppression of protein kinase A activity.[67] Consequently, we have investigated the change in cAMP levels upon probe addition using homogeneous time-resolved fluorescence (HTRF) cAMP assay (Table 3).
Homogeneous Time-Resolved Fluorescence (HTRF) cAMP assay
The homogeneous time-resolved fluorescence (HTRF) cAMP assay was conducted according to the manufacturer’s protocol for the cAMP-Gs Dynamic kit (Cisbio). Briefly, the CHO cell line stably overexpressing CB2R was maintained in Ham’s F12 supplemented with 10% FBS, penicillin (100 U/mL, Gibco-ThermoFisher), streptomycin (100 μg/mL, Gibco-ThermoFisher) and G418 (400 μg/mL, ThermoFisher). For CB2R compounds test, the cells were harvested with Cell Dissociation Buffer, resuspended in F-12 K at 0.4×10^6 cells/mL, and dispensed into 384-well low volume plates at 2000 cells/5 μL per well. The cells were stimulated with compounds diluted in Stimulation Buffer (2.5 μL/well) for 15 min at room temperature, followed by the addition of forsklin (2.5 μL 25 μM). After 15 mins incubation, reactions were stopped by 5 μL/well cAMP-d2 conjugate working solution followed by 5 μL/well of anti-cAMP cryptate working solution. After incubation for 1 h at room temperature, the plates were read in a PerkinElmer Envision reader for Time-Resolved Förster Resonance Energy Transfer (TR-FRET) at 620 nm and 665 nm.
β–arrestin recruitment assay
SNAP-tagged human CB2R HEK293-TR cells were maintained in a humidified environment at 37 °C and 5% CO2 in Dulbecco’s modified Eagle’s medium (DMEM) with 10% fetal bovine serum (FBS) containing blasticidin (5 µg/mL; Invitrogen) and (Zeocin; 20 µg/mL; Invitrogen). For receptor-inducible expression, cells were seeded into t175 cm2 flasks, grown to 70% confluence and DMEM containing 1 µg/ml tetracycline added.
HEK293TR-CB2R-nLuc cells expressing a fluorescently labelled β-arrestin protein were maintained in a humidified environment at 37 °C and 5% CO2 in Dulbecco’s modified Eagle’s medium (DMEM) with 10% fetal bovine serum (FBS) containing blasticidin (5 µg/mL; Invitrogen), Zeocin (20 µg/mL; Invitrogen) and G418 (0.2 mg/mL; Invitrogen) and used to assess compound stimulated β-arrestin recruitment to the human CB2R. Cultured cells were harvested upon reaching 70% confluency and plated at a seeding density of 50,000 cells per well. The cells were grown for 48 h until they reached confluency and then stimulated with 1 μg/mL tetracycline for a further 48 h to induce CB2R expression. Cell culture media was then aspirated from the wells and the cells were washed with assay buffer, 100 μL/well HBSS containing 0.5% BSA and 5 mM

hCB2R [2] = target: T1, hCB2R; type: cell-based; design: expressed in transfected cells; host or cells: HEK293TR cells, tetracycline-induced, live cells; settings: HEK293TR-CB2R-nLuc cells, representative of N = 3
Method: HEPES. Following the wash, assay buffer containing 10 μM furimazine, 90 μL/well was added
to the wells. The plate was then incubated at 37 °C for 15 minutes to allow the nanoLuc substrate
furimazine to enter the cells. Three BRET cycles of 1-minute intervals were performed to assess
basal BRET levels, following which 10 μL of each compound, diluted in assay buffer was added
to the assay plate, which was read at 1-minute intervals for 30 minutes.
Buffer containing 10% DMSO (1% final) served as the vehicle control and
The assay buffer used to profile compounds in the CB 2R Gi-CASE system consisted of HBSS
containing 0.02% pluronic F127, 0.5% BSA and 5 mM HEPES. The reference compounds HU -
polypropylene plate. 0.5 µL of the reference and test compound serial dilutions was then added to
a white 384 well OptiplateTM (PerkinElmer) containing 39.5 μL of assay buff er. Finally, the CB 2R
membranes containing the G i-CASE biosensor were thawed and added into assay buffer containing
50 µM furimazine. Membranes (10 μL) were added to the assay plate at a final concentration of 5
µg/well. The total assay volume was 50 µL.

hCB2R [3] = target: T1, hCB2R; assay: TR-FRET saturation binding assay at CB2R; design: expressed in transfected cells; host or cells: HEK293-TR cells, tetracycline-induced; membrane preparations; settings: room temperature; for Kd: TR-FRET, HEK293 membranes of SNAP-Lumi4-Tb labeled hCB2R
hCB2R [4] = target: T1, hCB2R; assay: TR-FRET kinetic binding assay at CB2R; design: expressed in transfected cells; host or cells: HEK293-TR cells, tetracycline-induced; membrane preparations; settings: for koff / kon / τ (receptor residence time) / Kd: hCB2R-HEK293 membranes, mean N = 3; for Kd: kinetic Kd
hCB2R [5] = target: T1, hCB2R; assay: BRET Gi-CASE G protein recruitment membrane assay; type: biochemical; design: expressed in transfected cells; host or cells: HEK293-TR cells, tetracycline-induced; membrane preparations; settings: for EC50: hCB2R-HEK293 T-REx membranes, mean N = 3–4, read-out: pEC50 (Gi-CASE G protein recruitment) (converted)
rat CB2R = assay: Live cell fluorescent Ca2+ imaging (Fluo-4AM) in AtT-20(rCB2R) cells; type: cell-based; settings: 20 μM, live AtT-20(rCB2R) cells; HU-308 added after (S)-3/(R)-3
Method: Live AtT-20 cells overexpressing rat CB2R [AtT-20(rCB2R)] were treated with Fluo-4AM Ca^2+ dye and imaged by confocal microscopy (Figure 7). […] Ionomycin was added at the end of the experiment to saturate Ca^2+ levels.
Culture media (D10): Contains high glucose DMEM (450 mL, Gibco, #11965-092), FBS (50 mL, HyClone’s USDA tested, #SH30910), antibiotic Penicillin-strep (2.5 mL, Gibco, #15070).
Sterile filtered and aliquoted.
Culture media (D10) with hygromycin-B selection: Contains high glucose DMEM (450 mL, Gibco, #11965-092), FBS (50 mL, HyClone’s USDA tested, #SH30910), antibiotic Penicillin-strep (2.5 mL, Gibco, #15070). Sterile filtered and aliquoted. Selection maintained with Hygromycin-B (200 µg/mL, Thermo Fisher Scientific, #10687010).
Imaging buffer: Contains (in mM): 115 NaCl, 1.2 CaCl2, 1.2 MgCl2, 1.2 K2HPO4, 20 HEPES, 20 D-glucose. Adjusted to pH 7.4 with NaOH. Sterile filtered and aliquoted.
AtT-20 wild type (WT) and overexpressing rat CB2R cells (AtT-20(rCB2R)) were cultured in D10 culture media. […]
Fluorescence images were acquired with an Olympus Fluoview 1200 laser scanning confocal microscope using a 63× objective. […] For a direct comparison of the AtT-20(rCB2R) and wild type cells, one well of each genotype was labelled in parallel, and the identical settings on the confocal microscope were used between wells to accurately compare the dye fluorescence intensities.

[6] = test system: CB2R-mediated phosphorylation of endogenous ERK1/2; assay: AlphaScreen SureFire phospho-ERK assay in CB2R inducible HCC1954 cells; type: cell-based; settings: 1 μM, 30 min, versus vehicle
Method: Activation of CB2R is associated with downstream stimulation of mitogen-activated protein kinases, such as ERK1/2, mediated via either Gβγ or β-arrestins.[70],[71] We have tested representative high-affinity fluorescent probe (R)-2 for CB2R-mediated phosphorylation of endogenous ERK1/2 in a CB2R inducible breast cancer HCC1954 cell line using the AlphaScreen SureFire phospho-ERK assay (Figure 6). […] (1 μM), or (R)-2 (1 μM) for 30 min. Following cell lysis, lysates were incubated with a mixture containing donor and acceptor beads for 2 h at room temperature and the luminescence emission signal was measured.
For ERK phosphorylation assay an inducible HCC1954 breast cancer cell line expressing CB2R […]
ERK1/2 phosphorylation was measured using AlphaScreen® SureFire® p‐ERK 1/2 assay kit according to manufacturer instructions (PerkinElmer) . Briefly, HCC1954 cells were seeded at a density of 100 000 cells/well in poly -D-lysine coated 96-well plates and incubated in absence or presence of 1 µg/ mL doxycycline for 24 h. On the next day prior to assay, cells were serum-starved for 2 h at 37°C. […] The plate was incubated for 2 h and ERK1/2 phosphorylation was measured on CLARIOstar® Plus Multimode Plate Reader (BMG Labtech, Germany), using a ratio of 620/570 nm. […]
Statistical significance was determined by one-way ANOVA followed by Tukey's post hoc test.

[7] = normalized to agonist CP-55,940 response (100%) and basal level (0%)

T1 sequence (P34972 whole entry): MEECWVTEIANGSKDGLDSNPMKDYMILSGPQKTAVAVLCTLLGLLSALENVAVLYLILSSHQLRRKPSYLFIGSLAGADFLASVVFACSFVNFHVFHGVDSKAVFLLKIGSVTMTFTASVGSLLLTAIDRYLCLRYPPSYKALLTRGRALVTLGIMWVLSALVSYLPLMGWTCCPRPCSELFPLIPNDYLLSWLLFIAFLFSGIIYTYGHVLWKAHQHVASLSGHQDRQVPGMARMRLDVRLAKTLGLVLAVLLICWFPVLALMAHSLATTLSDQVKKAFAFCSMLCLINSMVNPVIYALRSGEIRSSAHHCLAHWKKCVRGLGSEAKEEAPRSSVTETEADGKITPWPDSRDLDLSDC

Row | Compound | EC50 (hCB2R [1]) | β-arrestin recruitment (BRET signal) (hCB2R [2]) | Kd (hCB2R [3]) | koff (hCB2R [4]; 37 °C) | kon (hCB2R [4]; 37 °C) | τ (receptor residence time) (hCB2R [4]; 37 °C) | Kd (hCB2R [4]; 37 °C) | EC50 (hCB2R [5]) | further results
1 | COc1cc(C(C)(C)C(CCCCCN=[N+]=[N-])c2ccccc2)cc(OC)c1C1C=C(CN)C2CC1C2(C)C [(R)-1] | 112 nM | Baseline BRET signal was retained | 39.1 nM | 13.9 10^–2 min^–1 | 12.0 10^6 M^–1 min^–1 | 7.19 min | 11.6 nM | 158 nM | Emax (cAMP) (hCB2R [1]; [7]): –44%; fold greater binding affinity for CB2R in comparison to (S)-1 (hCB2R [3]; ratio of Kd values): 12 fold
2 | COc1cc(C(C)(C)C(CCCCCN=[N+]=[N-])c2ccccc2)cc(OC)c1C1C=C(CN)C2CC1C2(C)C [(S)-1] | 2690 nM | Baseline BRET signal was retained | 476 nM | 115 10^–2 min^–1 | 157000 M⁻¹ s⁻¹ | 0.87 min | 122 nM | 191 nM | Emax (hCB2R [1]; [7]): -44%; fold increased potency of G protein recruitment over adenylyl cyclase inhibition (hCB2R [5]; Gi-CASE pEC50 versus cAMP pEC50): 14 fold
3 | C#CCCC(=O)NCC1=CC(c2c(OC)cc(C(C)(C)C(CCCCCN=[N+]=[N-])c3ccccc3)cc2OC)C2CC1C2(C)C [(S)-3/(R)-3] | – | – | – | – | – | – | – | – | intracellular Ca2+ (Fluo-4AM fluorescence) (rat CB2R): did not elicit increase in Fluo-4AM fluorescence
4 | C#CCCC(=O)NCC1=CC(c2c(OC)cc(C(C)(C)C(CCCCCN=[N+]=[N-])c3ccccc3)cc2OC)C2CC1C2(C)C [(S)-3] | 40.7 nM | Baseline BRET signal was retained | 2.1 nM | 4.96 10^–2 min^–1 | 44.3 10^6 M^–1 min^–1 | 20.2 min | 1.12 nM | 30.9 nM | Emax (cAMP) (hCB2R [1]; [7]): –49%; ΔG (Experimental) (hCB2R [4]; ΔG exp = RT ln(Kd), T = 310 K, from experimental Kd values): –12.7 kcal mol-1
5 | CCCCCCC(C)(C)c1cc(OC)c([C@@H]2C=C(CO)[C@@H]3C[C@H]2C3(C)C)c(OC)c1 [HU-308, reference compound] | – | – | – | – | – | – | – | – | intracellular Ca2+ (Fluo-4AM fluorescence) (rat CB2R): triggered a robust fluorescence spike
6 | CCCC(C)(C)c1ccc2c(c1)OC(C)(C)[C@@H]1CC=C(C)C[C@@H]21 [JWH133] | – | – | – | – | – | – | – | – | ERK1/2 phosphorylation level ([6]; CB2R expression induced with DOX (1 μg/mL)): effectively stimulated ERK1/2 phosphorylation; ERK1/2 phosphorylation level ([6]; absence of CB2R expression inducer (DOX)): remained the same
7 | RO7568997 [reference compound] | – | – | – | – | – | – | – | – | dissociation rate of fluorescent tracer (hCB2R [4]; tracer of competition-association assay, value fixed in fitting, 37 °C): 1.13 min⁻¹
